Patent US12508275B2, “Neomycin based compounds, and pharmaceutical use thereof” (UNIVERSITÉ COTE D'AZUR, priority 2019, dated 2025)
pIC50: −log10 of the molar value.

Tests used:
[1] = tested on: Patient derived GSC (GB5); experiment: Effect of compound treatment on GSC phenotype (adhesion, morphology), GB5; type: cell-based, human; conditions: three days
Description: FIG. 1: phase contrast images of GB5 morphology untreated (CTL DMSO) or treated with the indicated compound (“Cpd” denotes compound) at the indicated concentration. Control cells grow as non-adherent spheroids composed of numerous GSC. When differentiated the cells become adherent and spread on the culture dish.
B—Cell culture: Patient-derived cells GB5 were isolated from surgical resection of human primary GBM provided by the department of neurosurgery of the University Hospital of Nice. TG6 (patient-derived cell from primary GBM) and HNNSC25 (Human Normal Neural Stem Cells) have been provided by Dr Hervé Chneiweiss, University of Pierre and Marie Curie, Paris. The resulting primary cultures (GB5, TG6, HNNSC25) were grown in NS34+ medium containing EGF and bFGF (DMEM-F12 1/1 ratio, 10 mM glutamine, 10 mM Hepes, 0.025% Sodium bicarbonate, N2, G5, and B27).
Patient derived GSC (GB5) were treated with growing concentration of Compounds 9a-b and 18a-b (10 to 100 uM) during three days). […] Similar results have been obtained with TG6.

[2] = tested on: NESTIN expression in GB5; experiment: NESTIN expression by immunofluorescence in GB5; type: cell-based, human; conditions: GB5, seven days, growing concentrations
Experimental: (§1) FIG. 2: Compounds 9a-b and 18a-b effect on stemness marker expression, clonal expansion and mitosis in GB5 cells. (A) NESTIN expression was assessed by immunofluorescence in GB5 treated with increasing amount of Compounds 9a-b and 18a. The number of NESTIN positive cells was counted for each treatment and express as percentage of the control (100%). The results are the meaning of at least two separate experiments. […] (C) Clonal expansion analysis was performed with GB5 cells as described in the material and method section. Two and three weeks later, the number of spheroids is counted and reported as percentage of the initial number of cells in the well. The results are the meaning of a minimum of two separate experiments. (D) The number of mitosis in the culture was determined by the detection of the number of cells positive for histone H3 phosphorylated on ser-10 (H3-ser10). H3-ser10 expression was assessed by immunofluorescence in GB5 treated with increasing amount of Compounds 9a-b and 18a. The number of positive cells was counted for each treatment and express as percentage of the control (100%). The results are the meaning of at least two separate experiments.
(§2) III—Immunofluorescence assay: TG6 and GB5 were seeded at 2000 cells/well in 24 wells plate in NS34+ alone or containing 5, 7.5, 10, 12.5, 15, 20 and 25 uM of Compounds 9a-b and 18a-b. Cultures were incubated 4 days and the cells were fixed with 4% paraformaldehyde for 10 min at room temperature then washed with PBS. Cells were then incubated with ammonium chloride at 20 mM 5 min at room temperature and washed 5 times with PBS. Blocking and hybridization were realized in PBS containing 10% FCS and 0.1% Triton X100. Anti-Nestin and anti-H3Phospho serine 10 antibodies were incubated 2 hours at room temperature then washed with PBS. Fluorescence coupled secondary antibodies and Hoechst 33342 nuclei counterstaining reagent were hybridized one hour at room temperature. Cells were mounted with anti-fading agent then imaged, counted and quantified using fluorescent microscopy (TiE Nikon) and NiS software (Nikon).
Patient derived GSC (GB5) have been treated during seven days, with growing concentrations of compounds that have been capable of inducing changes of GSC morphology. To assess the consequence on stemness maintenance, we observed, by immunofluorescence, the expression of stemness and progenitor cells such as the NESTIN protein. […] The strongest effect has been obtained with Compounds 9a treatment (IC50=10 uM).

[3] = tested on: GB5 cells; experiment: Clonal expansion (clonal proliferation) of GB5; type: cell-based, human; conditions: GB5, spheroids counted after two and three weeks
Experimental: as §1
Clonal proliferation: TG6 and GB5 were seeded at 10 cells/well in 96 wells plate in NS34+ medium alone or containing growing concentration of Compounds 9a-b and 18a-b. Immediately after seeding, the real number of cells in the well was determined by direct count. Two and three weeks later, the resulting number of spheroids in each well was evaluated by a direct count. The % of clonal efficiency was calculated in dividing […].
(§3) It was further investigated the effects of selected compounds on GSC clonal expansion as well as their capacity of mitosis (FIGS. 2B and C). Compounds 9a-b and 18a treatment altered GSC clonal expansion and mitosis. The most efficient inhibition of clonal expansion was provided by Compound 9a treatment (IC50<10 uM) while both Compounds 9a-b were the most efficient for mitosis inhibition (IC50<10 uM) (FIGS. 2C and D).

[4] = tested on: GB5 cells; experiment: Mitosis: cells positive for histone H3 phosphorylated on ser-10, GB5; type: cell-based, human; conditions: GB5, H3-ser10 positive cells
Experimental: as §1, §2, §3

[5] = tested on: GB5; experiment: XTT toxicity assay on GSC (GB5); type: cell-based
Experimental: FIG. 4: Determination of compound toxicity on GSC and normal human cells. (A) GB5 were incubated with growing concentration of Compounds 9a-b and 18a. (B) human normal neural stem cell (NNSC), human normal kidney cells (NHEK), human normal hepatocytes (HEPRG) and (C) human endothelial cells (HUVEC) were treated with growing concentration of Compound 9a. 7 days later, the cells were subjected to an XTT assays as described in the method section. The results are the meaning of at least two separate experiments. Cell death was confirmed by trypan blue staining (not shown).
II—XTT assay: TG6 and GB5 were seeded at 2000 cells/well in 96 wells plate in NS34+ alone or containing 10, 20, 25, 50 and 100 uM of Compounds 9a-b and 18a-b. Cultures were incubated 4 days and the cell proliferation was evaluated as indicated by the manufacturer.
V—Toxicity tests: NNSC, GB5, TG6, HEK293, and HepaRG, HUVEC were seeded at 2000 cells/well in 96 wells plate in their respective culture mediums alone or containing growing concentration from 10 to 500 uM of Compounds 9a-b. Cultures were incubated 4 days and the cellular toxicity has been evaluated by XTT assays. Cell viability has been also assessed by counting living and dead cells with trypan blue staining.
XTT assays allows, through cell metabolism measurement, to determine a cytotoxic/cytostatic effects. Compounds 9a-b and 18a were tested for their eventual toxicity by XTT assays as described in the material and method section. At the working concentrations 10 to 25 uM, the compounds are not toxic for GSC (FIG. 4A). […] Compound 9a toxicity was further tested on normal neural stem cells (NNSC), human kidney (NHEK), human hepatocytes (HEPRG) and human endothelial cells (HUVEC). The compound is not toxic on NNSC, NHEK, HEPRG and HUVEC cells when used between 10 to 50 uM. At 100 uM and above, Compound 9a was toxic (FIG. 4).

[6] = tested on: GB5 cells; experiment: TMZ assay: GSC sensitivity to Temozolomide (XTT); type: cell-based, human; conditions: three days; for increase of TMZ sensitivity: GB5, TMZ 400 uM plus compound at 10 uM; for increase of TMZ sensitivity, maximal effect: GB5, TMZ 400 uM plus compound at 50 uM
Experimental: FIG. 5: Sensitivity to TMZ was assessed by comparing the percentage of dead cells between TMZ treated GB5 and TMZ treated GB5 in combination with Compound 9a. GB5 cells have been treated with 400 uM TMZ alone or in combination with growing concentrations of Compounds 9a-b and 18b. The results are the meaning of at least two separate experiments.
IV—TMZ assay: TG6 and GB5 were seeded at 2000 cells/well in 96 wells plate in NS34+ or treated with medium containing 400 uM of TMZ alone or mixed with 10, 25 and 50 uM of Compounds 9a-b and 18a-b. Cultures were incubated 4 days and the cell viability has been evaluated by XTT assays and a count of living and dead cells with trypan blue staining.
Temozolomide is the chemotherapy of reference for GBM treatment. In order to assess whether the compounds might sensitize GSC to TMZ, TMZ (400 uM) pretreated GB5 cells were incubated with 10, 25 and 50 uM of Compounds 9a-b and 18b. Three days later the experiment is stop and the cells were subjected to an XTT assays. […] Cell toxicity was confirmed by trypan blue staining.

| SMILES | adhesion and changes in GSC morphology ([1]; GB5, 10 uM) | NESTIN expression [2] | GSC clonal expansion [3] | GSC mitosis [4] | pIC50 ([4]; Homo sapiens, read-out: mitosis inhibition IC50) | toxicity for GSC (XTT) ([5]; GB5, 50 uM and higher) | toxicity for GSC (XTT) ([5]; GB5, 10 to 25 uM) | increase of TMZ sensitivity [6] | increase of TMZ sensitivity, maximal effect [6] | adhesion and changes in GSC morphology ([1]; GB5, 25 uM) |
| --- | --- | --- | --- | --- | --- | --- | --- | --- | --- | --- |
| NCC1OC(OC2C(Cn3cc(CCC(=O)NCCc4nc(-c5nc(C(=O)NCCCCN=C(N)N)cs5)cs4)nn3)OC(OC3C(O)C(N)CC(N)C3OC3OC(CN)C(O)C(O)C3N)C2O)C(N)C(O)C1O (stereo not drawn) [Compound 9b, N-(4-((Diaminomethylene)amino)butyl)-2′-(2-(3-(1-methyl-1H-1,2,3-triazol-4-yl)propanamido)ethyl)-[2,4′-bithiazole]-4-carboxamide-neomycin] | induced adhesion and changes in GSC morphology | drop in NESTIN expression | altered | altered | > 5.00 | relative toxicity | not toxic | 1.8 fold | 2.8 fold |  |
| NCCCCNCCCNC(=O)c1csc(-c2csc(CCNC(=O)CCC(=O)NCC3OC(OC4C(O)C(N)CC(N)C4OC4OC(CN)C(O)C(O)C4N)C(O)C3OC3OC(CN)C(O)C(O)C3N)n2)n1 (stereo not drawn) [Compound 18a, 4-((2-(4-((3-((4-aminobutyl)amino)propyl)carbamoyl)-[2,4′-bithiazol]-2′-yl)ethyl)amino)-4-oxobutanoic-amido-neomycin] | induced adhesion and changes in GSC morphology | drop in NESTIN expression | altered | altered |  | relative toxicity | not toxic |  |  |  |
| NCCCNC(=O)c1csc(-c2csc(CCNC(=O)CCC(=O)NCC3OC(OC4C(O)C(N)CC(N)C4OC4OC(CN)C(O)C(O)C4N)C(O)C3OC3OC(CN)C(O)C(O)C3N)n2)n1 (stereo not drawn) [Compound 18b, 4-((2-(4-((3-aminopropyl)carbamoyl)-[2,4′-bithiazol]-2′-yl)ethyl)amino)-4-oxobutanoic-amido-neomycin] |  |  |  |  |  |  |  | 1.7 fold | 3 fold | induced adhesion and changes in GSC morphology |
